These results are taken from PubChem BioAssay AID298 (DTP/NCI, 2004).

SMILES strings stand for the structures. Records with an inconclusive call do not appear.

The test has as its system MX-1 breast xenograft, intrarenal, nude mice, tumor weight. Nature of the test: NCI In Vivo Anticancer Drug Screen. Data for tumor model Human Mammary Carcinoma MX-1 Xenograft (intrarenal inoculation) in NU/NU BALB/C (nude) mice. The settings on record: endpoint: mean tumor weight change, higher = larger tumour. The procedure:
The antitumor activity of compounds was measured in mice bearing transplantable tumors. Survival or tumor size were measured and the results are expressed as the measurement made in the treated group (T) divided by the measurement made in the vehicle treated control group (C). The tumor model used in this assay is Human Mammary Carcinoma MX-1 Xenograft (intrarenal inoculation) in NU/NU BALB/C (nude) mice

Where [1] appears, read: dose: 300.0 mg/kg/injection, schedule: Q04DX003 (sc), vehicle: saline with Tween-80.

As for `c1ccc2c(NCCCCCCCCNc3c4ccccc4nc4ccccc34)c3ccccc3nc2c1`, the T/C was 106 % of control (dose: 20.0 mg/kg/injection, schedule: Q01DX010 (sc), vehicle: Klucel (hydroxypropylcellulose) (HPC)); 107 % of control (dose: 40.0 mg/kg/injection, schedule: Q01DX010 (sc), vehicle: Klucel (hydroxypropylcellulose) (HPC)); 100 % of control (dose: 80.0 mg/kg/injection, schedule: Q01DX010 (sc), vehicle: Klucel (hydroxypropylcellulose) (HPC)); 99 % of control (dose: 160.0 mg/kg/injection, schedule: Q01DX010 (sc), vehicle: Klucel (hydroxypropylcellulose) (HPC)).
On to `COc1cc2c[n+](C)c3c(c2cc1OC)Cc1cc2c(cc1-3)OCO2`, for which the T/C (dose: 75.0 mg/kg/injection, schedule: Q04DX003 (ip), vehicle: saline with Tween-80) is 102 % of control and the T/C (dose: 150.0 mg/kg/injection, schedule: Q04DX003 (ip), vehicle: saline with Tween-80) is 35 % of control.
Take `COC1C(CO)OC(n2c3c(Cl)cccc3c3c4c(c5c6cccc(Cl)c6[nH]c5c32)C(=O)NC4=O)C(O)C1O` (centres undefined): the T/C (dose: 100.0 mg/kg/injection, schedule: Q04DX003 (ip), vehicle: distilled water + Tween-80) is 69 % of control; the T/C (dose: 200.0 mg/kg/injection, schedule: Q04DX003 (ip), vehicle: distilled water + Tween-80) was 43 % of control; the T/C (dose: 400.0 mg/kg/injection, schedule: Q04DX003 (ip), vehicle: distilled water + Tween-80) was 21 % of control; the T/C (dose: 800.0 mg/kg/injection, schedule: Q04DX003 (ip), vehicle: distilled water + Tween-80) is 30 % of control.
For the compound `Nc1nc2c(ncn2C2OC(CO)C(O)C2O)c(=O)[nH]1` (centres undefined), the T/C is 84 % of control under setting [1]; 81 % of control (dose: 600.0 mg/kg/injection, schedule: Q04DX003 (sc), vehicle: saline with Tween-80); 82 % of control (dose: 1200.0 mg/kg/injection, schedule: Q04DX003 (sc), vehicle: saline with Tween-80); 88 % of control (dose: 2400.0 mg/kg/injection, schedule: Q04DX003 (sc), vehicle: saline with Tween-80).
In the case of `CC(=O)C1=C(O)C2(O)C(=O)c3c(c(C)c4ccc(C)c(O)c4c3O)CC2C(N)C1=O` (centres undefined), the T/C was 89 % of control (dose: 100.0 mg/kg/injection, schedule: Q04DX003 (sc), vehicle: saline); 107 % of control (dose: 200.0 mg/kg/injection, schedule: Q04DX003 (sc), vehicle: saline); 98 % of control (dose: 400.0 mg/kg/injection, schedule: Q04DX003 (sc), vehicle: saline); 84 % of control (dose: 800.0 mg/kg/injection, schedule: Q04DX003 (sc), vehicle: saline).
On to `O=c1n(CC2CO2)c(=O)n(CC2CO2)n1CC1CO1` (centres undefined), for which the T/C reads like this: (dose: 9.38 mg/kg/injection, schedule: Q04DX003 (sc), vehicle: suspension in saline) 46 % of control; (dose: 18.75 mg/kg/injection, schedule: Q04DX003 (sc), vehicle: suspension in saline) 20 % of control; (dose: 37.5 mg/kg/injection, schedule: Q04DX003 (sc), vehicle: suspension in saline) 12 % of control.
Consider `Nc1ccn([C@@H]2C=C(CO)[C@@H](O)[C@H]2O)c(=O)n1`, for which the T/C reads like this: (dose: 0.5 mg/kg/injection, schedule: Q01DX009 (ip), vehicle: saline) 26 % of control; (dose: 2.0 mg/kg/injection, schedule: Q01DX009 (ip), vehicle: saline) 3 % of control.
Turning to `COc1cc2cc(c1Cl)N(C)C(=O)C[C@H](OC(=O)[C@H](C)N(C)C(C)=O)[C@]1(C)O[C@H]1[C@H](C)[C@@H]1C[C@@](O)(NC(=O)O1)[C@H](OC)C=C/C=C(\C)C2`, the T/C is 152 % of control (dose: 12.5 micrograms/kg/injection, schedule: Q01DX010 (sc), vehicle: Klucel (hydroxypropylcellulose) (HPC)); 73 % of control (dose: 25.0 micrograms/kg/injection, schedule: Q01DX010 (sc), vehicle: Klucel (hydroxypropylcellulose) (HPC)); 75 % of control (dose: 50.0 micrograms/kg/injection, schedule: Q01DX010 (sc), vehicle: Klucel (hydroxypropylcellulose) (HPC)); 14 % of control (dose: 100.0 micrograms/kg/injection, schedule: Q01DX010 (sc), vehicle: Klucel (hydroxypropylcellulose) (HPC)); -78 % of control (dose: 200.0 micrograms/kg/injection, schedule: Q01DX010 (sc), vehicle: Klucel (hydroxypropylcellulose) (HPC)).
With `COc1cccc2c1C(CO)N1C(C#N)C3CC(C(=O)O)C(C1C2)N3C` (centres undefined), the T/C (dose: 3.75 mg/kg/injection, schedule: Q04DX003 (ip), vehicle: saline) is 31 % of control; the T/C (dose: 6.25 mg/kg/injection, schedule: Q01DX010 (ip), vehicle: saline) is -61 % of control; the T/C (dose: 6.25 mg/kg/injection, schedule: Q04DX003 (ip), vehicle: saline) was 9 % of control; the T/C (dose: 6.25 mg/kg/injection, schedule: Q04DX003 (ip), vehicle: suspension in saline) is 10 % of control; the T/C (dose: 7.5 mg/kg/injection, schedule: Q04DX003 (ip), vehicle: saline) is 40 % of control; the T/C (dose: 12.5 mg/kg/injection, schedule: Q01DX010 (ip), vehicle: saline) is -100 % of control. For the same compound, the T/C runs as follows: (dose: 12.5 mg/kg/injection, schedule: Q04DX003 (ip), vehicle: saline) 17 % of control; (dose: 12.5 mg/kg/injection, schedule: Q04DX003 (ip), vehicle: suspension in saline) 6 % of control; (dose: 15.0 mg/kg/injection, schedule: Q04DX003 (ip), vehicle: saline) 38 % of control; (dose: 25.0 mg/kg/injection, schedule: Q01DX010 (ip), vehicle: saline) -99 % of control; (dose: 25.0 mg/kg/injection, schedule: Q04DX003 (ip), vehicle: saline) 14 % of control; (dose: 25.0 mg/kg/injection, schedule: Q04DX003 (ip), vehicle: suspension in saline) -48 % of control. The T/C runs as follows: (dose: 30.0 mg/kg/injection, schedule: Q04DX003 (ip), vehicle: saline) 58 % of control; (dose: 50.0 mg/kg/injection, schedule: Q04DX003 (ip), vehicle: saline) 2 % of control; (dose: 50.0 mg/kg/injection, schedule: Q04DX003 (ip), vehicle: suspension in saline) -79 % of control; (dose: 60.0 mg/kg/injection, schedule: Q04DX003 (ip), vehicle: saline) 13 % of control.
`NC(=S)N/N=C/c1ncccc1O`: the T/C (dose: 150.0 mg/kg/injection, schedule: Q04DX003 (ip), vehicle: suspension in saline) was 86 % of control and the T/C (dose: 300.0 mg/kg/injection, schedule: Q04DX003 (ip), vehicle: suspension in saline) was 93 % of control.
Regarding `CC(=O)O[C@H]1C(=O)[C@@]2(C)C(C(OC(=O)c3ccccc3)[C@]3(O)C[C@H](OC(=O)C(OC(=O)CCCC(=O)NCCCN(C)C)C(NC(=O)c4ccccc4)c4ccccc4)C(C)=C1C3(C)C)C1(OC(C)=O)COC1C[C@@H]2O` (some centres undefined), the T/C was 22 % of control (dose: 2.5 mg/kg/injection, schedule: Q01DX009 (ip), vehicle: water); 1 % of control (dose: 5.0 mg/kg/injection, schedule: Q01DX009 (ip), vehicle: water); 1 % of control (dose: 10.0 mg/kg/injection, schedule: Q01DX009 (ip), vehicle: water); -100 % of control (dose: 20.0 mg/kg/injection, schedule: Q01DX009 (ip), vehicle: water); -100 % of control (dose: 40.0 mg/kg/injection, schedule: Q01DX009 (ip), vehicle: water).
Turning to `CC(=O)N(C)O`, the T/C runs as follows: (dose: 37.5 mg/kg/injection, schedule: Q04DX003 (sc), vehicle: saline with Tween-80) 98 % of control; (dose: 75.0 mg/kg/injection, schedule: Q04DX003 (sc), vehicle: saline with Tween-80) 80 % of control; (dose: 150.0 mg/kg/injection, schedule: Q04DX003 (sc), vehicle: saline with Tween-80) 69 % of control; under setting [1], 87 % of control.
As for `CCCCCCCCCCC(OC(C)=O)C1CCC(C2CCC(C(O)CCCCCCCCCCCCC3C=C(C)OC3=O)O2)O1` (centres undefined), the T/C is 80 % of control (dose: 20.0 mg/kg/injection, schedule: Q04DX003 (sc), vehicle: water); 72 % of control (dose: 40.0 mg/kg/injection, schedule: Q04DX003 (sc), vehicle: water); 71 % of control (dose: 80.0 mg/kg/injection, schedule: Q04DX003 (sc), vehicle: water); 70 % of control (dose: 160.0 mg/kg/injection, schedule: Q04DX003 (sc), vehicle: water).
